# Data as given in patent US4133876A, “Antibiotic A-32887 and process for production thereof” (Eli Lilly and Company, priority 1977, dated 1979).
# Experiments:
# coccidia = test: Feeding experiments in young chickens challenged with coccidia; type: in vivo, Eimeria species; settings: feed levels as low as 40 ppm
# [1] = tested on: E. tenella and E. acervulina; test: Anticoccidial activity in chicks (Table XII); type: in vivo; parameters: Average Lesion Score, Intestinal / Average Lesion Score, Cecal: scale not given here; settings: for Oocysts Per Bird: days 7-9; for Percent Mortality: due to coccidiosis; for Percent Weight Gain: normal controls = 100%
# Protocol: ^1 6 replicates; 5 birds each
# ^2 Infection inoculum 48 hours post-medication onset
# ^4 Normal controls = 100%
# acute swine dysentery = test: Swine dysentery test in pigs (Table XVII); type: in vivo
# Protocol: In another aspect the A-32887 compounds are useful in the prevention and control of swine dysentery. A preferred method of administration to swine is by incorporation of an appropriate amount of an A-32887 compound into the feed ration. […] In this test, groups of four pigs were challenged orally with 5.0 ml of a colon-content/tissue suspension prepared from pigs suffering from acute swine dysentery. Treated pigs were challenged 24 hours after initiating feed treatment. The test was carried out over a period of 26 days, observing pigs daily, and weighing them weekly and on day 26.
# *Fecal material for each group was rated daily with 0=normal, 1=slight
# blood or mucus, 2=moderate blood or mucus, 3=marked blood or mucus. Index
# is the total score per treatment for 25 days.
# [2] = Ruminal VFA in fistulated feed-lot cattle (Table XV); type: in vivo; settings: 30 g/ton, 24-day treatment
# Excerpt: The procedure used in testing cattle in this manner is also described in Raun's U.S. Pat. No. 3,839,557 (see Example 9). Table XV summarizes the results of such a test with A-32887 (Na-K salt) wherein five feed-lot cattle weighing approximately 425 kg. were in each group and the mean percent increases in ruminal propionate concentration were averaged over four analyses in a 24-day treatment period.
# Mycoplasma synoviae = test: In vitro broth-dilution studies, mycoplasma (Table X); type: cell-based
# Excerpt: (§1) Activity against mycoplasma is another useful aspect of the antimicrobial activity of the A-32887 compounds. Mycoplasma species, also known as pleuropneumonia-like (PPLO) organisms, are pathogenic to man and various animals. Anti-mycoplasma agents are especially needed by the poultry industry. The MIC's of A-32887 (Na-K salt) against typical mycoplasma species, as determined by in vitro broth-dilution studies, are summarized in Table X: […]
# Mycoplasma gallisepticum = test: as above; type: cell-based
# Excerpt: as §1
# Mycoplasma hyorhinis = test: as above; type: cell-based
# Excerpt: as §1
# Mycoplasma hyopneumoniae = test: as above; type: cell-based
# Excerpt: as §1
# powdery mildew = test: Powdery mildew disease in bean plants, spray; type: in vivo; settings: 400 ppm spray
# Excerpt: The A-32887 compounds are also useful in the treatment of certain plant diseases.
# guinea pig left atria = test: Cardiac contractility of guinea pig left atria; settings: 10^-5 molar; percentage of maximal force elicited by a challenge dose of norepinephrine
# Excerpt: The A-32887 compounds are potential cardiotonic agents. In tests using guinea pig left atria, A-32887 (Na-K salt) increased cardiac contractility. Response to this test is expressed as a percentage of the maximal force that could be elicited by a challenge dose of norepinephrine. A-32887 (Na-K salt), at a 10^-5 molar concentration, increased cardiac contractility by 28.0 ± 7.1 percent.
# [3] = tested on: E. tenella, E. maxima and E. acervulina; test: Anticoccidial activity in chicks (Table XIII); type: in vivo; parameters: Average Lesion Score, Intestinal / Average Lesion Score, Cecal: scale not given here; settings: for Percent Mortality: due to coccidiosis; for Percent Weight Gain: per survivor; for Oocysts/Bird: total days 5, 6 and 7 post-inoculation; for Feed/Gain: pens without deaths only
# Excerpt: ^2 Six replicates; 5 birds/each
# ^5 Pens without deaths, only
# ^6 Total days 5, 6 and 7 post-inoculation
# E. tenella and E. maxima = test: Anticoccidial activity in chicks (Table XI); type: in vivo; parameters: Average Lesion Score, Total Intestinal / Average Lesion Score, Cecal: scale not given here; settings: for Mortality: due to coccidiosis; for Feed/Gain: pens without deaths only; for Average Weight Gain: per survivor
# Protocol: ^1 70,000 oocysts/bird of each of E. tenella and E. maxima
# ^2 Infected 48 hours postmedication; terminated seven days
# ^3 Four replicates; five birds/replicate
# ^6 Pens without deaths only
# rumen flora = test: Volatile-fatty-acid (VFA) production in treated vs control flasks (Table XIV)
# [4] = Acute toxicity, intraperitoneal, mice; type: in vivo; settings: intraperitoneally
# ATPase = ATPase inhibition in vitro using NaCl; type: biochemical
# Excerpt: In yet another aspect, the A-32887 compounds are active as inhibitors of the enzyme ATPase. ATPase, an alkali-metal-sensitive enzyme found in cell membranes, is involved in the energy necessary for active transport. "Active transport" refers to the energy-requiring series of operations whereby intracellular and extracellular fluids maintain their compositions. Inhibitors of ATPase reduce the energy required for active transport.
# [5] = Ruminal propionate in sheep (Table XVI); type: in vivo; settings: 15 g/ton, 19-day treatment, control 26.5
# Excerpt: Table XVI summarizes the results of a similar test in sheep with A-32887 (Na-K salt) wherein four sheep were in each group and the mean percent increases in ruminal propionate concentration were averaged over four analyses in a 19-day treatment period.
# [6] = tested on: Staphylococcus aureus 3055; test: Standard agar-dilution assay, MIC (Table VI); type: cell-based
# Excerpt: (§2) Antibiotic A-32887 inhibits the growth of pathogenic bacteria, especially gram-positive bacteria. Table VI summarizes the minimal inhibitory concentrations (MIC), as measured by standard agar-dilution assays, at which A-32887 (Na-K salt) inhibits certain bacteria.
# Staphylococcus sp. = test: Standard agar-dilution assay, MIC (Table VI); type: cell-based
# Excerpt: as §2
# Streptococcus faecalis = test: Standard agar-dilution assay, MIC (Table VI); type: cell-based
# Excerpt: as §2
# [7] = tested on: Pasteurella multocida (bovine); test: Standard agar-dilution assay, MIC (Table VI); type: cell-based
# Excerpt: as §2
# Streptococcus sp. = test: Standard agar-dilution assay, MIC (Table VI); type: cell-based
# Excerpt: as §2
compound,measurement,setting,value
CO[C@H]1CC[C@H](OC2[C@@H](C)[C@@](C)(O)O[C@H]([C@H]3CC[C@H]([C@@H]4CC[C@H]([C@@]5(C)O[C@]6(O[C@H](C[C@@H]7O[C@](O)([C@@H](O)C(=O)O)[C@@H](C)[C@H](OC)[C@@]7(C)OC)C[C@@H](OC)[C@H]6C)[C@H](C)[C@H]5OC)O4)O3)[C@H]2C)O[C@@H]1C.[K+].[Na+] (some centres unmarked) [A-32887 (Na-K salt)],Mortality,coccidia,decreases
same,number of lesions,coccidia,decreases
same,"Average Lesion Score, Cecal",[1]; 62 ppm,0.1
same,"Average Lesion Score, Intestinal",[1]; 62 ppm,0.9
same,Oocysts Per Bird,[1]; 62 ppm,16.40 1×10^6
same,Percent Mortality,[1]; 62 ppm,0%
same,Percent Weight Gain,[1]; 62 ppm,97%
same,"Average Lesion Score, Cecal",[1]; 77 ppm,0
same,"Average Lesion Score, Intestinal",[1]; 77 ppm,0.7
same,Oocysts Per Bird,[1]; 77 ppm,5.48 1×10^6
same,Percent Mortality,[1]; 77 ppm,0%
same,Percent Weight Gain,[1]; 77 ppm,90%
same,"Average Lesion Score, Cecal",[1]; 100 ppm,0.1
same,"Average Lesion Score, Intestinal",[1]; 100 ppm,0.6
same,Oocysts Per Bird,[1]; 100 ppm,1.28 1×10^6
same,Percent Mortality,[1]; 100 ppm,0%
same,Percent Weight Gain,[1]; 100 ppm,85%
same,"Average Lesion Score, Cecal",[1]; 121 ppm,0
same,"Average Lesion Score, Intestinal",[1]; 121 ppm,0.3
same,Oocysts Per Bird,[1]; 121 ppm,0.4 1×10^6
same,Percent Mortality,[1]; 121 ppm,0%
same,Percent Weight Gain,[1]; 121 ppm,73%
same,Final-Average Wt. per Pig,"acute swine dysentery; 100 g/ton in feed, 26 days",30.3 lbs
same,No. Died per No. in Group,"acute swine dysentery; 100 g/ton in feed, 26 days",0/4
same,No. with Colon Lesions/No. in Group,"acute swine dysentery; 100 g/ton in feed, 26 days",2/4
same,Diarrhea Index,"acute swine dysentery; 100 g/ton, total score per treatment for 25 days (0=normal to 3=marked blood or mucus)",22
same,Molar % Butyrate,[2]; control 8.1,9.6 Molar %
same,Molar % Propionate,"[2]; control 17.4, * P<0.01",27.1 Molar %
same,Molar % Acetate,"[2]; control 74.5, * P<0.01",63.3 Molar %
same,Total VFA,[2]; control 79.9,79.6 mM/1.
same,MIC,Mycoplasma synoviae,3.12 µg/mL
same,MIC,Mycoplasma gallisepticum,12.5 µg/mL
same,MIC,Mycoplasma hyorhinis,25.0 µg/mL
same,MIC,Mycoplasma hyopneumoniae,6.25 µg/mL
same,inhibition of powdery mildew disease,powdery mildew,inhibits powdery mildew disease
same,increase in cardiac contractility,guinea pig left atria,28.0 ± 7.1%
same,"Average Lesion Score, Cecal",[3]; 25 ppm,3.9
same,"Average Lesion Score, Intestinal",[3]; 25 ppm,1.1
same,Percent Mortality,[3]; 25 ppm,35%
same,Percent Weight Gain,[3]; 25 ppm,57%
same,Oocysts/Bird,[3]; 25 ppm,64.83 1×10^6
same,"Average Lesion Score, Cecal",[3]; 50 ppm,3.8
same,"Average Lesion Score, Intestinal",[3]; 50 ppm,1.8
same,Percent Mortality,[3]; 50 ppm,0%
same,Feed/Gain,[3]; 50 ppm,1.67
same,Percent Weight Gain,[3]; 50 ppm,79%
same,Oocysts/Bird,[3]; 50 ppm,35.78 1×10^6
same,"Average Lesion Score, Cecal",[3]; 75 ppm,2.0
same,"Average Lesion Score, Intestinal",[3]; 75 ppm,0.9
same,Percent Mortality,[3]; 75 ppm,0%
same,Feed/Gain,[3]; 75 ppm,1.49
same,Percent Weight Gain,[3]; 75 ppm,90%
same,Oocysts/Bird,[3]; 75 ppm,24.35 1×10^6
same,"Average Lesion Score, Cecal",[3]; 100 ppm,0.1
same,"Average Lesion Score, Intestinal",[3]; 100 ppm,0
same,Percent Mortality,[3]; 100 ppm,0%
same,Feed/Gain,[3]; 100 ppm,1.50
same,Percent Weight Gain,[3]; 100 ppm,93%
same,Oocysts/Bird,[3]; 100 ppm,6.49 1×10^6
same,"Average Lesion Score, Cecal",E. tenella and E. maxima; 40 ppm,1.6
same,"Average Lesion Score, Total Intestinal",E. tenella and E. maxima; 40 ppm,4.9
same,Mortality,E. tenella and E. maxima; 40 ppm in feed,0
same,Feed/Gain,E. tenella and E. maxima; 40 ppm,1.89
same,Average Weight Gain,E. tenella and E. maxima; 40 ppm,176 g
same,"Average Lesion Score, Cecal",E. tenella and E. maxima; 60 ppm,0.6
same,"Average Lesion Score, Total Intestinal",E. tenella and E. maxima; 60 ppm,5.9
same,Mortality,E. tenella and E. maxima; 60 ppm in feed,0
same,Feed/Gain,E. tenella and E. maxima; 60 ppm,1.83
same,Average Weight Gain,E. tenella and E. maxima; 60 ppm,155 g
same,"Average Lesion Score, Cecal",E. tenella and E. maxima; 80 ppm,0.3
same,"Average Lesion Score, Total Intestinal",E. tenella and E. maxima; 80 ppm,3.0
same,Mortality,E. tenella and E. maxima; 80 ppm in feed,0
same,Feed/Gain,E. tenella and E. maxima; 80 ppm,1.83
same,Average Weight Gain,E. tenella and E. maxima; 80 ppm,182 g
same,"Average Lesion Score, Cecal",E. tenella and E. maxima; 100 ppm,0
same,"Average Lesion Score, Total Intestinal",E. tenella and E. maxima; 100 ppm,1.6
same,Mortality,E. tenella and E. maxima; 100 ppm in feed,0
same,Feed/Gain,E. tenella and E. maxima; 100 ppm,1.87
same,Average Weight Gain,E. tenella and E. maxima; 100 ppm,159 g
same,"Ratio of Treated to Control, Total VFA mM/1.",rumen flora; 1 mcg/ml,0.7498
same,"Ratio of Treated to Control, Molar % Acetate",rumen flora; 10 mcg/ml,0.8857
same,"Ratio of Treated to Control, Molar % Butyrate",rumen flora; 10 mcg/ml,0.7012
same,"Ratio of Treated to Control, Total VFA mM/1.",rumen flora; 10 mcg/ml,1.0086
same,"Ratio of Treated to Control, Molar % Propionate","rumen flora; 10 mcg/ml, * P<0.01",1.2919
same,LD50,[4],37.5 mg/kg × 1
same,ATPase inhibition,ATPase,inhibit ATPase
same,Molar % Propionate,[5],29.5 Molar %
same,MIC,[6],6.25 µg/mL
same,MIC,Staphylococcus sp.,1.56 µg/mL
same,MIC,Streptococcus faecalis,6.25 µg/mL
same,MIC,[7],50.00 µg/mL
same,MIC,Streptococcus sp.,3.12 µg/mL
